Among the data in paper doi:10.1101/2024.08.19.608619, “Discovery of potent SARS-CoV-2 nsp3 macrodomain inhibitors uncovers lack of translation to cellular antiviral response” (bioRxiv, 2024) are inhibition and perc_inhibition_mean values, retold here.

Assay [1] addresses T1, SARS-CoV-2 nsp3-mac1 (Severe acute respiratory syndrome coronavirus 2, UniProt P0DTD1). The experiment in a line: biochemical. Set-up: SARS-CoV-2 nsp3 macrodomain TR-FRET single point, per cent inhibition, n=2.
Assay [2] addresses T1, SARS-CoV-2 nsp3-mac1. The experiment in a line: biochemical. The format is biochemical. The note with it: SARS-CoV-2 nsp3 macrodomain TR-FRET single point.
Where [3] appears, read: read-out: perc_inhibition_mean, batch_name=ASAP-0000284-001.
The mark [4] stands for this setting: read-out: perc_inhibition_mean, batch_name=ASAP-0000249-001.
Setting [5] is: read-out: perc_inhibition_mean, batch_name=ASAP-0000386-001.
[6] abbreviates: read-out: perc_inhibition_mean, batch_name=ASAP-0000304-001.
[7] abbreviates: read-out: perc_inhibition_mean, batch_name=ASAP-0000260-001.
The mark [8] stands for this setting: read-out: perc_inhibition_mean, batch_name=ASAP-0000276-001.
The mark [9] stands for this setting: read-out: perc_inhibition_mean, batch_name=ASAP-0000310-001.
Where [10] appears, read: read-out: perc_inhibition_mean, batch_name=ASAP-0000308-001.
The mark [11] stands for this setting: read-out: perc_inhibition_mean, batch_name=ASAP-0000331-001.
Where [12] appears, read: read-out: perc_inhibition_mean, batch_name=ASAP-0000314-001.
Setting [13] is: read-out: perc_inhibition_mean, batch_name=ASAP-0000464-001.

Read-outs that look alike come from different tables or passages of the source.

`Cc1nc(C(=O)N2CCC(c3ccn4ncc(C(=O)N5CCCCC5)c4c3)CC2)c(=O)[nH]c1C` [ASAP-0000284]: the inhibition at 49.75 µM at SARS-CoV-2 nsp3-mac1 [1] (setting [3]) was 26.4%. In addition, the inhibition at 99.5 µM at SARS-CoV-2 nsp3-mac1 [1] (setting [3]) came out at 44.2%. The perc_inhibition_mean at SARS-CoV-2 nsp3-mac1 [2] (concentration 49.75 uM, n=2) came to 26.409%; on SARS-CoV-2 nsp3-mac1 [2] (concentration 99.5 uM, n=2) it was 44.216%.
Regarding `OC[C@H](Cc1ccccc1)Nc1ncnc2[nH]ccc12` [ASAP-0000249], at SARS-CoV-2 nsp3-mac1 [1] (setting [4]), the inhibition at 50 µM was -1.29% and the inhibition at 100 µM amounted to 8.93%. For the same compound, the perc_inhibition_mean on SARS-CoV-2 nsp3-mac1 [2] (concentration 50.0 uM) is given as -1.29%. In addition, the perc_inhibition_mean on SARS-CoV-2 nsp3-mac1 [2] (concentration 100.0 uM) stood at 8.928%.
`NC(=O)c1ncccc1C(=O)N1CCC(c2ccn3ncc(C(=O)N4CCCCC4)c3c2)CC1` [ASAP-0000386]: at SARS-CoV-2 nsp3-mac1 [1] (setting [5]), the inhibition at 49.75 µM amounted to 20% and the inhibition at 99.5 µM is 36%. Moreover, on SARS-CoV-2 nsp3-mac1 [2] (concentration 49.75 uM), the perc_inhibition_mean is listed as 19.978%. For the same compound, the perc_inhibition_mean at SARS-CoV-2 nsp3-mac1 [2] (concentration 99.5 uM) amounted to 36.045%.
Take `O=C(Nc1ccccc1)Nc1ccc(C(=O)NCc2ccnc(F)c2)cc1` [ASAP-0000304]: on SARS-CoV-2 nsp3-mac1 [1] (setting [6]), the inhibition at 49.75 µM is -0.36%. Further, at SARS-CoV-2 nsp3-mac1 [1] (setting [6]), the inhibition at 99.5 µM is 4.92%. Moreover, the perc_inhibition_mean at SARS-CoV-2 nsp3-mac1 [2] (concentration 49.75 uM, n=2) is reported as -0.36%; at SARS-CoV-2 nsp3-mac1 [2] (concentration 99.5 uM, n=2) it was 4.92%.
On to `Cc1cc(NCc2ncccc2O)ncn1` [ASAP-0000124], for which the inhibition at 50 µM on SARS-CoV-2 nsp3-mac1 [1] (read-out: perc_inhibition_mean, batch_name=ASAP-0000124-001) is -3.33%. At SARS-CoV-2 nsp3-mac1 [2] (concentration 50.0 uM), the perc_inhibition_mean is -3.335%.
For the compound `Oc1cc(CNc2ncnc3[nH]cnc23)ccn1` [ASAP-0000260], at SARS-CoV-2 nsp3-mac1 [1] (setting [7]), the inhibition at 50 µM was -0.821% and the inhibition at 100 µM was -3.73%. Further, the perc_inhibition_mean at SARS-CoV-2 nsp3-mac1 [2] (concentration 50.0 uM, n=2) is listed as -0.821%. Moreover, at SARS-CoV-2 nsp3-mac1 [2] (concentration 100.0 uM, n=2), the perc_inhibition_mean is -3.73%.
In the case of `Cn1ncc2ncnc(NCc3ncccc3O)c21` [ASAP-0000119], the inhibition at 50 µM on SARS-CoV-2 nsp3-mac1 [1] (read-out: perc_inhibition_mean, batch_name=ASAP-0000119-001) was -2.55%. Besides, the perc_inhibition_mean on SARS-CoV-2 nsp3-mac1 [2] (concentration 50.0 uM) is listed as -2.547%.
On to `COC(=O)[C@]1(F)CCN(C(=O)c2ccc(NC(=O)Nc3ccccc3)cc2)C1` [ASAP-0000276], for which the inhibition at 49.75 µM at SARS-CoV-2 nsp3-mac1 [1] (setting [8]) is -0.893%. The inhibition at 99.5 µM on SARS-CoV-2 nsp3-mac1 [1] (setting [8]) amounted to 0.834%. The perc_inhibition_mean at SARS-CoV-2 nsp3-mac1 [2] (concentration 49.75 uM, n=2) is -0.893%; at SARS-CoV-2 nsp3-mac1 [2] (concentration 99.5 uM, n=2), 0.834%.
Regarding `O=C(O)c1sccc1C(=O)N1CCC(c2ccn3ncc(C(=O)N4CCCCC4)c3c2)CC1` [ASAP-0000310], at SARS-CoV-2 nsp3-mac1 [1] (setting [9]), the inhibition at 49.75 µM was 55.5% and the inhibition at 99.5 µM stood at 71.5%. Moreover, on SARS-CoV-2 nsp3-mac1 [2] (concentration 49.75 uM, n=2), the perc_inhibition_mean is listed as 55.49%. Besides, the perc_inhibition_mean at SARS-CoV-2 nsp3-mac1 [2] (concentration 99.5 uM, n=2) amounted to 71.528%.
For the compound `CC(=O)Nc1ccc(S(=O)(=O)NNc2ncnc3sccc23)cc1` [ASAP-0000109], the inhibition at 50 µM at SARS-CoV-2 nsp3-mac1 [1] (read-out: perc_inhibition_mean, batch_name=ASAP-0000109-001) stood at 5.36%. At SARS-CoV-2 nsp3-mac1 [2] (concentration 50.0 uM), the perc_inhibition_mean came out at 5.363%.
Turning to `Cc1ccc(S(=O)(=O)Nc2ccccc2F)cc1C(=O)Nc1cnc2[nH]ncc2c1` [ASAP-0000018], the inhibition at 50 µM on SARS-CoV-2 nsp3-mac1 [1] (read-out: perc_inhibition_mean, batch_name=ASAP-0000018-001) is 0.764%. Besides, the perc_inhibition_mean on SARS-CoV-2 nsp3-mac1 [2] (concentration 50.0 uM) is reported as 0.764%.
Turning to `O=C(Nc1ccccc1)Nc1ccc(C(=O)NCCc2cccnc2)cc1` [ASAP-0000308], at SARS-CoV-2 nsp3-mac1 [1] (setting [10]), the inhibition at 49.75 µM came out at 1.27% and the inhibition at 99.5 µM was determined as 10.4%. On SARS-CoV-2 nsp3-mac1 [2] (concentration 49.75 uM, n=2), the perc_inhibition_mean worked out at 1.269%. Also, the perc_inhibition_mean at SARS-CoV-2 nsp3-mac1 [2] (concentration 99.5 uM, n=2) worked out at 10.372%.
As to `Cn1cnc(C(=O)N(CCC(=O)N2CCNCC2)Cc2cccc(Cl)c2)n1` [ASAP-0000331], on SARS-CoV-2 nsp3-mac1 [1] (setting [11]), the inhibition at 49.75 µM is -1.44% and the inhibition at 99.5 µM is -0.25%. In addition, the perc_inhibition_mean at SARS-CoV-2 nsp3-mac1 [2] (concentration 49.75 uM, n=2) was -1.441%. Further, the perc_inhibition_mean at SARS-CoV-2 nsp3-mac1 [2] (concentration 99.5 uM, n=2) is recorded as -0.25%.
With `Cc1ncc(C(=O)N(CCC(=O)N2CCNCC2)Cc2cccc(Cl)c2)cc1N` [ASAP-0000314], on SARS-CoV-2 nsp3-mac1 [1] (setting [12]), the inhibition at 49.75 µM came to 1.35%. The inhibition at 99.5 µM on SARS-CoV-2 nsp3-mac1 [1] (setting [12]) is 1.3%. The perc_inhibition_mean came out at 1.351% on SARS-CoV-2 nsp3-mac1 [2] (concentration 49.75 uM, n=2) and 1.305% at SARS-CoV-2 nsp3-mac1 [2] (concentration 99.5 uM, n=2).
In the case of `CC(C)(C[C@@H]1CCCN(c2ncnc3[nH]ccc23)C1)C(N)=O` [ASAP-0000077], the inhibition at 50 µM on SARS-CoV-2 nsp3-mac1 [1] (read-out: perc_inhibition_mean, batch_name=ASAP-0000077-001) is -1.59%. Further, at SARS-CoV-2 nsp3-mac1 [2] (concentration 50.0 uM), the perc_inhibition_mean is listed as -1.586%.
For the compound `C[C@@H](Cc1ccc(Cl)s1)Nc1ccc([C@@H](CC(=O)O)NC(=O)c2c[nH]c3ncncc23)cc1` [ASAP-0000464], on SARS-CoV-2 nsp3-mac1 [1] (setting [13]), the inhibition at 49.75 µM was -1.54% and the inhibition at 99.5 µM was determined as 1.95%. Besides, the perc_inhibition_mean on SARS-CoV-2 nsp3-mac1 [2] (concentration 49.75 uM) is -1.543%. Further, the perc_inhibition_mean on SARS-CoV-2 nsp3-mac1 [2] (concentration 99.5 uM) was found to be 1.952%.
